Results taken from PubChem BioAssay AID624374 (Broad Institute, 2012).
Results filed as inconclusive are left out. Active and inactive are the calls of the source. How the calls were made is not given here.

system: HEK293 viability counterscreen, plate reader; test: HEK293 cell viability, dose response, counter-screen for EBV LMP1 inhibitor project, dry powder, set 2 (AID 624374)

| SMILES | AC35 |
| --- | --- |
| Cc1cc(C(=O)Nc2ccc3c(c2)C(=O)N(C)[C@@H]2CC[C@@H](CC(=O)NCc4ccc(-c5ccccc5)cc4)O[C@H]2CO3)no1 | > 35 µM (inactive) |
| O=C(C[C@@H]1C[C@@H]2c3cc(NC(=O)c4ccc5c(c4)OCO5)ccc3O[C@@H]2[C@@H](CO)O1)NCc1ccc(Oc2ccccc2)cc1 | 33.8 µM |
| O=C(C[C@@H]1C[C@@H]2c3cc(NS(=O)(=O)c4ccc(F)cc4)ccc3O[C@@H]2[C@@H](CO)O1)NCc1ccc(Oc2ccccc2)cc1 | 20.8 µM |
| C[C@H](CO)N1C[C@H](C)[C@@H](CN(C)Cc2ccc(C(F)(F)F)cc2)Oc2ccc(NC(=O)Cc3ccccc3)cc2CC1=O | > 35 µM (inactive) |
